From patent US12350270B2, “Antimalarial agents” (Merck Sharp & Dohme LLC, priority 2019, dated 2025) come the findings set out here.

One test relates to parasites (ring stage, in human red blood cell culture). The test is described as follows: Parasite LDH growth assay (antiparasite potency, Parasite Assay). The test is classed as cell-based, Plasmodium falciparum. Conditions: 0.7% rings, 2% haematocrit, 72 hours at 37° C., LDH readout of parasite growth. The gist of the method: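 Growth was read by an LDH assay after a freeze–thaw cycle (−80 °C overnight, 4 h thaw at RT). Before that, parasites grew with compound for 72 h at 37 °C under gassed, humidified conditions. The input was a ring-stage culture adjusted to 0.7% parasitemia and 2% haematocrit in serum (5%)/albumax (0.5%)-supplemented RPMI-Hepes.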
In the case of `CC(C)[C@]1(C)CC(=O)N([C@@H]2CC(C)(C)Oc3ccc(C(=O)N[C@@H]4c5ccccc5OC[C@H]4O)cc32)C(=N)N1` [Example 40A, (R)-N-((3S,4R)-3-hydroxychroman-4-yl)-4-((S)-2-imino-4-isopropyl-4-methyl-6-oxotetrahydropyrimidin-1(2H)-yl)-2,2-dimethylchromane-6-carboxamide], the concentration giving a half-maximal response (EC50) (in general, the concentration that produces a half-maximal response) stood at 69.5 nM.

`CC(C)[C@]1(C)CC(=O)N([C@@H]2CC(C)(C)Oc3ccc(C(=O)N[C@@H]4c5ccccc5OC[C@H]4O)cc32)C(=N)N1` [Example 45A, (R)-N-((3S,4R)-3-hydroxychroman-4-yl)-4-((S)-2-imino-4-isopropyl-4-methyl-6-oxotetrahydropyrimidin-1(2H)-yl)-2,2-dimethylchromane-6-carboxamide] returned an EC50 of 2.6 nM.

The compound `CCC1(CC)CC(=O)N([C@@H]2CC(C)(C)Oc3ccc(C(=O)N[C@@H]4c5cc(F)ccc5OC(C)(C)[C@H]4O)cc32)C(=N)N1` [Example 46A, (R)-4-(4,4-diethyl-2-imino-6-oxotetrahydropyrimidin-1(2H)-yl)-N-((3S,4R)-6-fluoro-3-hydroxy-2,2-dimethylchroman-4-yl)-2,2-dimethylchromane-6-carboxamide] showed a 50% effective concentration (EC50) of 130 nM.

For `CCC1(CC)CC(=O)N([C@@H]2CC(C)(C)Oc3ccc(C(=O)N[C@@H]4c5cc(F)ccc5OC(C)(C)[C@H]4O)cc32)C(=N)N1` [Example 53A, (R)-4-(4,4-diethyl-2-imino-6-oxotetrahydropyrimidin-1(2H)-yl)-N-((3S,4R)-6-fluoro-3-hydroxy-2,2-dimethylchroman-4-yl)-2,2-dimethylchromane-6-carboxamide], it took 0.3 nM to reach a half-maximal effect (EC50).

With `CC1(C)CC(=O)N([C@@H]2CC(C)(C)Oc3ccc(C(=O)N[C@@H]4c5ccccc5OC[C@H]4O)cc32)C(=N)N1` [Example 56A, (R)-N-((3S,4R)-3-hydroxychroman-4-yl)-4-(2-imino-4,4-dimethyl-6-oxotetrahydropyrimidin-1(2H)-yl)-2,2-dimethylchromane-6-carboxamide], the concentration giving a half-maximal response (EC50) was found to be 26.9 nM.

Staying with this test, now noted: Plasmodium falciparum, Erythrocyte, 72 h, 0.7% rings, 2% haematocrit, 72 hours at 37° C., LDH readout of parasite growth.
`CCC1(CC)CC(=O)N([C@@H]2CC(C)(C)Oc3ccc(C(=O)N[C@@H]4c5ccccc5C[C@H]4O)cc32)C(=N)N1` [Example 35A, (R)-4-(4,4-diethyl-2-imino-6-oxotetrahydropyrimidin-1(2H)-yl)-N-((lR,2R)-2-hydroxy-2,3-dihydro-1H-inden-1-yl)-2,2-dimethylchromane-6-carboxamide] returned a 50% effective concentration (EC50) of 2.4 nM.

`CCC1(CC)CC(=O)N([C@@H]2CC(C)(C)Oc3ccc(C(=O)N[C@@H]4c5ccccc5OC[C@@H]4O)cc32)C(=N)N1` [Example 36A, (R)-4-(4,4-diethyl-2-imino-6-oxotetrahydropyrimidin-1(2H)-yl)-N-((3R,4R)-3-hydroxychroman-4-yl)-2,2-dimethylchromane-6-carboxamide] registered an EC50 of 8.9 nM.

Turning to `CCC1(CC)CC(=O)N([C@@H]2CC(C)(C)Oc3ccc(C(=O)N[C@@H]4c5ccccc5OC[C@H]4O)cc32)C(=N)N1` [Example 36B, (R)-4-(4,4-diethyl-2-imino-6-oxotetrahydropyrimidin-1(2H)-yl)-N-((3 S,4R)-3-hydroxychroman-4-yl)-2,2-dimethylchromane-6-carboxamide], the concentration giving a half-maximal response (EC50) is 2.2 nM.

For `CC(C)[C@]1(C)CC(=O)N([C@@H]2CC(C)(C)Oc3ccc(C(=O)N[C@H]4CCOc5ccccc54)cc32)C(=N)N1` [Example 37A, (R)-N-((S)-chroman-4-yl)-4-((S)-2-imino-4-isopropyl-4-methyl-6-oxotetrahydropyrimidin-1(2H)-yl)-2,2-dimethylchromane-6-carboxamide], it took 74.4 nM to reach a half-maximal effect (EC50).

`CC(C)[C@]1(C)CC(=O)N([C@@H]2CC(C)(C)Oc3ccc(C(=O)N[C@@H]4c5ccccc5OC(C)(C)[C@H]4O)cc32)C(=N)N1` [Example 38A, (R)-N-((3 S,4R)-3-hydroxy-2,2-dimethylchroman-4-yl)-4-((S)-2-imino-4-isopropyl-4-methyl-6-oxotetrahydropyrimidin-1(2H)-yl)-2,2-dimethylchromane-6-carboxamide] displayed an EC50 of 2.8 nM.

In turn, `CC(C)[C@]1(C)CC(=O)N([C@@H]2CC(C)(C)Oc3ccc(C(=O)N[C@@H]4c5ccccc5C[C@H]4O)cc32)C(=N)N1` [Example 39A, (R)-N-((1R,2R)-2-hydroxy-2,3-dihydro-1H-inden-l-yl)-4-((S)-2-imino-4-isopropyl-4-methyl-6-oxotetrahydropyrimidin-1(2H)-yl)-2,2-dimethylchromane-6-carboxamide] yielded an EC50 of 29.9 nM.

The compound `CC(C)[C@]1(C)CC(=O)N([C@@H]2CC(C)(C)Oc3ccc(C(=O)N[C@@H]4c5cc(F)ccc5OC(C)(C)[C@H]4O)cc32)C(=N)N1` [Example 41A, (R)-N-((3 S,4R)-6-fluoro-3-hydroxy-2,2-dimethylchroman-4-yl)-4-((S)-2-imino-4-isopropyl-4-methyl-6-oxotetrahydropyrimidin-1(2H)-yl)-2,2-dimethylchromane-6-carboxamide] yielded an EC50 of 2.8 nM.

`CC1(C)CC(=O)N([C@@H]2CC(C)(C)Oc3ccc(C(=O)N[C@@H]4c5ccccc5OC(C)(C)[C@H]4O)cc32)C(=N)N1` [Example 47A, (R)-N-((3S,4R)-3-hydroxy-2,2-dimethylchroman-4-yl)-4-(2-imino-4,4-dimethyl-6-oxotetrahydropyrimidin-1(2H)-yl)-2,2-dimethylchromane-6-carboxamide] yielded a concentration for a half-maximal effect (EC50) of 4.7 nM.

With `CC1(C)CC(=O)N([C@@H]2CC(C)(C)Oc3ccc(C(=O)N[C@@H]4c5ccccc5C[C@H]4O)cc32)C(=N)N1` [Example 48A, (R)-N-((lR,2R)-2-hydroxy-2,3-dihydro-1H-inden-l-yl)-4-(2-imino-4,4-dimethyl-6-oxotetrahydropyrimidin-1(2H)-yl)-2,2-dimethylchromane-6-carboxamide], a half-maximal response (EC50) required 37.5 nM.

`CC1(C)CC(=O)N([C@@H]2CC(C)(C)Oc3ccc(C(=O)N[C@@H]4c5ccccc5OC[C@H]4O)cc32)C(=N)N1` [Example 49A, (R)-N-((3S,4R)-3-hydroxychroman-4-yl)-4-(2-imino-4,4-dimethyl-6-oxotetrahydropyrimidin-1(2H)-yl)-2,2-dimethylchromane-6-carboxamide] yielded an EC50 of 49 nM.

With `CCC1(CC)C[C@@H](N2C(=N)NC(C)(C)CC2=O)c2cc(C(=O)N[C@@H]3c4ccccc4OC(C)(C)[C@H]3O)ccc2O1` [Example 50A, (R)-2,2-diethyl-N-((3S,4R)-3-hydroxy-2,2-dimethylchroman-4-yl)-4-(2-imino-4,4-dimethyl-6-oxotetrahydropyrimidin-1(2H)-yl)chromane-6-carboxamide], the EC50 was 3.7 nM.

The compound `CCC1(CC)C[C@@H](N2C(=N)NC(C)(C)CC2=O)c2cc(C(=O)N[C@@H]3c4ccccc4C[C@H]3O)ccc2O1` [Example 51A, (R)-2,2-diethyl-N-((1R,2R)-2-hydroxy-2,3-dihydro-1H-inden-l-yl)-4-(2-imino-4,4-dimethyl-6-oxotetrahydropyrimidin-1(2H)-yl)chromane-6-carboxamide] had a concentration giving a half-maximal response (EC50) of 22.5 nM.

With `CCC1(CC)C[C@@H](N2C(=N)NC(C)(C)CC2=O)c2cc(C(=O)N[C@@H]3c4ccccc4OC[C@H]3O)ccc2O1` [Example 52A, (R)-2,2-diethyl-N-((3S,4R)-3-hydroxychroman-4-yl)-4-(2-imino-4,4-dimethyl-6-oxotetrahydropyrimidin-1(2H)-yl)chromane-6-carboxamide], the response was half-maximal at 14.4 nM (EC50).
